Measured values published in patent US12398154B2, “Azaquinazoline pan-KRas inhibitors” (Mirati Therapeutics, Inc., priority 2020, dated 2025).

Tests used:
KRas G13D = target: T1, KRas G13D (Homo sapiens, UniProt P01116, G13D); assay: KRas binding assay (TR-FRET displacement);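 also: One-hour room temperature incubation before TR-FRET reading, IC50 from a four-parameter curve fit to percent-of-control data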
T1 construct: Biotinylated KRas (corresponding to amino acids 1-169, produced at Accelegan Inc.); biotin (biotinylated); purchased Accelegan Inc
Experimental: (§1) The ability of a compound to bind to KRas was measured using a TR-FRET displacement assay. […] After a 60-minute incubation at room temperature, the reaction was measured using a BMG LABTECH CLARIO star Plus via TR-FRET. […] The POC values were fit to a 4-parameter IC50 equation and the IC50 value reported.

KRas Q61H = target: T2, KRas Q61H (Homo sapiens, UniProt P01116, Q61H); assay: KRas binding assay (TR-FRET displacement);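 also: TR-FRET signal read after one hour at room temperature, IC50 derived by four-parameter fitting of percent-of-control values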
T2 construct: Biotinylated KRas (corresponding to amino acids 1-169, produced at Accelegan Inc.); biotin (biotinylated); purchased Accelegan Inc
Experimental: as §1

KRas G12D = KRas G12D (Homo sapiens, UniProt P01116, G12D); assay: biochemical;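 also: TR-FRET displacement binding assay on KRas, read after a one-hour incubation at room temperature, IC50 fitted from percent-of-control values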
Experimental: as §1

KRas G12V = KRas G12V (Homo sapiens, UniProt P01116, G12V); assay: biochemical;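 also: KRas binding measured by TR-FRET displacement at room temperature, IC50 fitted from percent of control values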
Experimental: as §1

KRas G12R = KRas G12R (Homo sapiens, UniProt P01116, G12R); assay: biochemical;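 also: TR-FRET displacement assay of compound binding to KRas, read after one hour at room temperature, potency from a four-parameter fit of percent-of-control values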
Experimental: as §1

KRas G12A = KRas G12A (Homo sapiens, UniProt P01116, G12A); assay: biochemical;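 also: binding to KRas measured by TR-FRET displacement after one hour at room temperature, IC50 from a four-parameter fit of percent-of-control values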
Experimental: as §1

KRas G12S = KRas G12S (Homo sapiens, UniProt P01116, G12S); assay: biochemical;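 also: TR-FRET displacement binding to KRas, read after one hour incubation at room temperature, IC50 from four-parameter fit of percent of control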
Experimental: as §1

KRas G12C = KRas G12C (Homo sapiens, UniProt P01116, G12C); assay: biochemical;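 also: binding to KRas assessed by TR-FRET displacement after one hour incubation at room temperature, potency fitted from percent-of-control values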
Experimental: as §1

KRas WT = KRas WT (Homo sapiens, UniProt P01116); assay: biochemical;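 also: binding to KRas read as TR-FRET displacement after a one-hour room-temperature incubation, IC50 derived from percent-of-control values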
KRas WT, sequence (P01116 1-169 isoform P01116-2): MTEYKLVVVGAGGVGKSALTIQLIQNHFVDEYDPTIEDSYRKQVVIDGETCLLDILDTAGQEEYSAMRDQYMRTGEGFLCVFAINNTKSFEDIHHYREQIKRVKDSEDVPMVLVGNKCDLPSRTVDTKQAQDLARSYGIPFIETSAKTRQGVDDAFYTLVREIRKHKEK
Experimental: as §1

KRas G12C, sequence (P01116 1-169 isoform P01116-2 G12C): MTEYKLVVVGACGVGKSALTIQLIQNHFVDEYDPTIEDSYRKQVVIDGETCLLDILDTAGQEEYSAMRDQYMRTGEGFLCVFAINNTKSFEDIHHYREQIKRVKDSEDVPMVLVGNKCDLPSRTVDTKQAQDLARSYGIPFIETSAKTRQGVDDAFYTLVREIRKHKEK
KRas G12V, sequence (P01116 1-169 isoform P01116-2 G12V): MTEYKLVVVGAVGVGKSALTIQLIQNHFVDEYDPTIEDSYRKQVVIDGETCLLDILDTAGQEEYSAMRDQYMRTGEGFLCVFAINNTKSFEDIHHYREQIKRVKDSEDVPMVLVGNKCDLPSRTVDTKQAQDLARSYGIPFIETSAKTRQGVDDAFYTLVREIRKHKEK
KRas G12S, sequence (P01116 1-169 isoform P01116-2 G12S): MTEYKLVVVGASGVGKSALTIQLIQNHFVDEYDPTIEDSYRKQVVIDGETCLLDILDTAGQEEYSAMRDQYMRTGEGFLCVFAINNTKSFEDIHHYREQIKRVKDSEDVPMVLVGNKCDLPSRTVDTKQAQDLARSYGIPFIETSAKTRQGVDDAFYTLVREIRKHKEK
KRas G12A, sequence (P01116 1-169 isoform P01116-2 G12A): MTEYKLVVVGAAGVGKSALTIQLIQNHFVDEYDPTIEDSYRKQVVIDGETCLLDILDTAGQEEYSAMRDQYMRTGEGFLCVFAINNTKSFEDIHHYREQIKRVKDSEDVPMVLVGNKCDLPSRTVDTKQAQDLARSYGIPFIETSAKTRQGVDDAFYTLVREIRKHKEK
KRas G12R, sequence (P01116 1-169 isoform P01116-2 G12R): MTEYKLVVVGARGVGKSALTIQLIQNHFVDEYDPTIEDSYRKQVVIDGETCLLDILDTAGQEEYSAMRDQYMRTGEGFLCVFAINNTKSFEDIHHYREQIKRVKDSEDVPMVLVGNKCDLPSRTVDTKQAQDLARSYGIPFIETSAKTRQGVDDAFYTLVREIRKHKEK
KRas G12D, sequence (P01116 1-169 isoform P01116-2 G12D): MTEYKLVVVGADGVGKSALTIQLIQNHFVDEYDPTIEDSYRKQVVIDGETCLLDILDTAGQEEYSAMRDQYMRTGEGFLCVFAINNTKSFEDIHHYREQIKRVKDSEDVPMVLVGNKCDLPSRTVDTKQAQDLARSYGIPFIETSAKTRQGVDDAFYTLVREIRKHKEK
T1 sequence (P01116 1-169 isoform P01116-2 G13D): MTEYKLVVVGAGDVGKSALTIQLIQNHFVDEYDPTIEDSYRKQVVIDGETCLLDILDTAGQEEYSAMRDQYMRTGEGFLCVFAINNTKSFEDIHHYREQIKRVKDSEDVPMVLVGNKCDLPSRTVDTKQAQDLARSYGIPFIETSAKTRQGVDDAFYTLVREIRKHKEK
T2 sequence (P01116 1-169 isoform P01116-2 Q61H): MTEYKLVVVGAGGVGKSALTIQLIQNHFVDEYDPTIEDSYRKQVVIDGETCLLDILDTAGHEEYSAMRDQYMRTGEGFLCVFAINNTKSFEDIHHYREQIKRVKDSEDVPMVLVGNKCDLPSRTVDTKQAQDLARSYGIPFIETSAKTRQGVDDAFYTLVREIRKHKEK

Row | Structure (SMILES) | IC50 (KRas G13D) [nM] | IC50 (KRas Q61H) [nM] | IC50 (KRas G12D) [µM] | IC50 (KRas G12V) [µM] | IC50 (KRas G12R) [µM] | IC50 (KRas G12A) [µM] | IC50 (KRas G12S) [µM] | IC50 (KRas G12C) [µM] | IC50 (KRas WT) [µM]
1 | CCc1c(F)ccc2cc(O)cc(-c3ncc4c(N5CCCCC5)nc(OC[C@@H]5C[C@@H](O)CN5C)nc4c3F)c12 [Example 6] | 21 | 23 | 0.029 | 0.019 | 0.014 | 0.016 | 0.02 | 0.018 | 0.022
2 | O=C1CC(CNc2nc(OCC34CCCN3CCC4)nc3c(F)c(-c4cccc5cccc(F)c45)ncc23)CN1 (stereo not shown) [Example 29, 4-(((8-fluoro-7-(8-fluoronaphthalen-1-yl)-2-((hexahydro-1H-pyrrolizin-7a-yl)methoxy)pyrido[4,3-d]pyrimidin-4-yl)amino)methyl)pyrrolidin-2-one] | 8190 | 13900 | 20.5 | 1.96 | 4.38 | 6.2 | 3.11 | 4.32 | 5.84
3 | Fc1c(-c2cccc3cccc(F)c23)ncc2c(N3CCCC(c4nc[nH]n4)C3)nc(OCC34CCCN3CCC4)nc12 (stereo not shown) [Example 30, 4-(3-(1H-1,2,4-triazol-3-yl)piperidin-1-yl)-8-fluoro-7-(8-fluoronaphthalen-1-yl)-2-((hexahydro-1H-pyrrolizin-7a-yl)methoxy)pyrido[4,3-d]pyrimidine] | 2000 | 2900 | 0.209 | 0.8 | 1.27 | 1.76 | 1.45 | 1.29 | 1.74
4 | CC1(CNc2nc(OCC34CCCN3CCC4)nc3c(F)c(-c4cccc5cccc(F)c45)ncc23)CNC(=O)C1 (stereo not shown) [Example 35, 4-(((8-fluoro-7-(8-fluoronaphthalen-1-yl)-2-((hexahydro-1H-pyrrolizin-7a-yl)methoxy)pyrido[4,3-d]pyrimidin-4-yl)amino)methyl)-4-methylpyrrolidin-2-one] | 1660 | 4010 | 12.1 | 2.52 | 1.61 | – | – | – | –
5 | O=C1CCC2(CCCN(c3nc(OCC45CCCN4CCC5)nc4c(F)c(-c5cccc6cccc(F)c56)ncc34)C2)C1 (stereo not shown) [Example 46, 7-(8-fluoro-7-(8-fluoronaphthalen-1-yl)-2-((hexahydro-1H-pyrrolizin-7a-yl)methoxy)pyrido[4,3-d]pyrimidin-4-yl)-7-azaspiro[4.5]decan-2-one] | 8790 | 18500 | 14.1 | 24 | 22.5 | – | – | – | –
6 | CCc1c(F)ccc2cc(O)cc(-c3ncc4c(NCc5c[nH]c6ncccc56)nc(OC[C@@]56CCCN5C[C@H](F)C6)nc4c3F)c12 [Example 62, 4-(4-(((1H-pyrrolo[2,3-b]pyridin-3-yl)methyl)amino)-8-fluoro-2-(((2R,7aS)-2-fluorohexahydro-1H-pyrrolizin-7a-yl)methoxy)pyrido[4,3-d]pyrimidin-7-yl)-5-ethyl-6-fluoronaphthalen-2-ol] | 3 | ≤ 2 | 0.003 | ≤ 0.002 | ≤ 0.002 | – | – | – | –
7 | Nc1ncccc1CNc1nc(OCC23CCCN2CCC3)nc2c(F)c(-c3cccc4cccc(F)c34)ncc12 [Example 70, N-((2-aminopyridin-3-yl)methyl)-8-fluoro-7-(8-fluoronaphthalen-1-yl)-2-((hexahydro-1H-pyrrolizin-7a-yl)methoxy)pyrido[4,3-d]pyrimidin-4-amine] | 11700 | 10800 | 14.1 | 0.397 | 0.215 | 0.403 | 0.418 | 0.224 | 2.86
8 | Nc1cc2n(n1)CCCN(c1nc(OCC34CCCN3CCC4)nc3c(F)c(-c4cccc5cccc(F)c45)ncc13)C2 [Example 78, 5-(8-fluoro-7-(8-fluoronaphthalen-1-yl)-2-((hexahydro-1H-pyrrolizin-7a-yl)methoxy)pyrido[4,3-d]pyrimidin-4-yl)-5,6,7,8-tetrahydro-4H-pyrazolo[1,5-a][1,4]diazepin-2-amine] | 3800 | 3300 | 0.677 | 1.53 | 1.76 | 2.2 | 1.24 | 1.26 | 2.68
9 | Fc1c(-c2cccc3cccc(F)c23)ncc2c(NCc3ccc4[nH]cnc4c3)nc(OCC34CCCN3CCC4)nc12 [Example 80, N-((1H-benzo[d]imidazol-5-yl)methyl)-8-fluoro-7-(8-fluoronaphthalen-1-yl)-2-((hexahydro-1H-pyrrolizin-7a-yl)methoxy)pyrido[4,3-d]pyrimidin-4-amine] | 6310 | 10700 | 29.8 | 1.59 | 1.47 | 1.58 | 2.57 | 1.25 | 6.84
10 | CCc1c(F)ccc2cc(O)cc(-c3ncc4c(NCc5n[nH]cc5C)nc(OC[C@@]56CCCN5C[C@H](F)C6)nc4c3F)c12 [Example 161, 5-ethyl-6-fluoro-4-(8-fluoro-2-(((2R,7aS)-2-fluorohexahydro-1H-pyrrolizin-7a-yl)methoxy)-4-(((4-methyl-1H-pyrmzol-3-yl)methyl)amino)pyrido[4,3-d]pyrimidin-7-yl)naphthalen-2-ol] | 16 | 17 | 0.068 | 0.007 | 0.009 | – | 0.015 | 0.007 | 0.02

Second part, the molecule after the results:

Row | IC50 (KRas G13D) [nM] | IC50 (KRas Q61H) [nM] | IC50 (KRas G12D) [µM] | IC50 (KRas G12V) [µM] | IC50 (KRas G12R) [µM] | IC50 (KRas G12A) [µM] | IC50 (KRas G12S) [µM] | IC50 (KRas G12C) [µM] | IC50 (KRas WT) [µM] | Structure (SMILES)
11 | 925 | 1860 | 0.746 | 1.49 | 2.23 | 0.961 | 0.921 | 1.19 | 0.956 | CC1(O)CCCN(c2nc(OCC34CCCN3CCC4)nc3c(F)c(-c4cccc5cccc(F)c45)ncc23)C1 (stereo not shown) [Example 17, 1-(8-fluoro-7-(8-fluoronaphthalen-1-yl)-2-((hexahydro-1H-pyrrolizin-7a-yl)methoxy)pyrido[4,3-d]pyrimidin-4-yl)-3-methylpiperidin-3-ol]
12 | 9370 | 13200 | 24 | 4.45 | 6.78 | 7.54 | 4.98 | 8.79 | 6.81 | Fc1c(-c2cccc3cccc(F)c23)ncc2c(N3C[C@@H]4CC[C@@H](C4)C3)nc(OCC34CCCN3CCC4)nc12 [Example 18, 4-((1R,5S)-3-azabicyclo[3.2.1]octan-3-yl)-8-fluoro-7-(8-fluoronaphthalen-1-yl)-2-((hexahydro-1H-pyrrolizin-7a-yl)methoxy)pyrido[4,3-d]pyrimidine]
13 | 12600 | 19400 | 14.8 | 9.73 | 10.7 | 12.6 | 18.8 | 12.7 | 11.4 | Fc1c(-c2cccc3cccc(F)c23)ncc2c(N3CCCCC3)nc(OCC34CCCN3CCC4)nc12 [Example 21, 8-fluoro-7-(8-fluoronaphthalen-1-yl)-2-((hexahydro-1H-pyrrolizin-7a-yl)methoxy)-4-(piperidin-1-yl)pyrido[4,3-d]pyrimidine]
14 | 16000 | 19900 | 18.4 | 20.4 | 24.1 | – | – | – | – | Fc1c(-c2cccc3cccc(F)c23)ncc2c(N3CCCC4(CCC(F)C4)C3)nc(OCC34CCCN3CCC4)nc12 (stereo not shown) [Example 48, 8-fluoro-4-(2-fluoro-7-azaspiro[4.5]decan-7-yl)-7-(8-fluoronaphthalen-1-yl)-2-((hexahydro-1H-pyrrolizin-7a-yl)methoxy)pyrido[4,3-d]pyrimidine]
15 | 1360 | 1550 | 0.568 | 1.36 | 2.55 | 1.3 | 1.15 | 1.06 | 0.997 | CC1(O)COCCN(c2nc(OCC34CCCN3CCC4)nc3c(F)c(-c4cccc5cccc(F)c45)ncc23)C1 (stereo not shown) [Example 64, 4-(8-fluoro-7-(8-fluoronaphthalen-1-yl)-2-((hexahydro-1H-pyrrolizin-7a-yl)methoxy)pyrido[4,3-d]pyrimidin-4-yl)-6-methyl-1,4-oxazepan-6-ol]
16 | 1210 | 1910 | 12.8 | 1.35 | 2.21 | 1.06 | 1.17 | 1.64 | 1.41 | O=C1CC2(CCN(c3nc(OCC45CCCN4CCC5)nc4c(F)c(-c5cccc6cccc(F)c56)ncc34)CC2)N1 [Example 77, 7-(8-fluoro-7-(8-fluoronaphthalen-1-yl)-2-((hexahydro-1H-pyrrolizin-7a-yl)methoxy)pyrido[4,3-d]pyrimidin-4-yl)-1,7-diazaspiro[3.5]nonan-2-one]
17 | 860 | 1170 | 3.56 | 0.802 | 1.04 | 0.759 | 0.531 | 0.891 | 0.864 | OC1CC2CC1CN(c1nc(OCC34CCCN3CCC4)nc3c(F)c(-c4cccc5cccc(F)c45)ncc13)C2 (stereo not shown) [Example 81, 3-(8-fluoro-7-(8-fluoronaphthalen-1-yl)-2-((hexahydro-1H-pyrrolizin-7a-yl)methoxy)pyrido[4,3-d]pyrimidin 4-yl)-3-azabicyclo[3.2.1]octan-6-ol]
